Earlier results, collected in patent US20110064813A1, “USE OF SALSALATE WITH OR WITHOUT CAFFEINE AND WITH OR WITHOUT OMEGA 3, AND OTHER PHARMACEUTICAL COMPOUNDS IN A DISTINCTIVELY UNIQUE NANO-PARTICULATE CAPSULE AND TABLET” (priority 2009, published 2011).

How the values were obtained:
[1] = test system: patients presenting with Type 2 Diabetes (T2D); conditions: tablet forms of salsalate; T2D patients and obese patients
[2] = administered orally
[3] = acidic conditions
[4] = compared with aspirin and other NSAIDS
pro-thrombin time = conditions: unlike Aspirin
[5] = test system: patients with rheumatoid arthritis; conditions: compared with diclofenac

## O=C(Oc1ccccc1C(=O)O)c1ccccc1O [salsalate, 2-(2-Hydroxybenzoyl)oxybenzoic acid]
[1]
  lowering of glucose levels: experienced efficacy in the lowering of glucose levels
[2]
  time to full benefit (plasma salicylate steady state): 3 to 4 days
HIV-infected patients; HIV patients
  salsalate induced liver dysfunction: a significant number of HIV patients experienced salsalate induced liver dysfunction
HIV-infected patients; HIV-infected patients
  endothelial function: improved endothelial function
[3]
  solubility: nearly insoluble
[4]
  fecal gastrointestinal blood loss: less fecal gastrointestinal blood loss than aspirin
pro-thrombin time
  inhibition of pro-thrombin time: does not inhibit
[5]
  clinical efficacy: equal to diclofenac
